Test results as given in patent US7482355B2, “Pyrimidine derivatives as modulators of chemokine receptor activity” (AstraZeneca AB, priority 2002, dated 2009).

Target: T1, hrCXCR2 (Homo sapiens, UniProt P25025)
T1 construct: expressed in transfected cells; host or cells: HEK 293 cells (ECACC No. 85120602), membranes of the highest expressing clone
T1 sequence (P25025 1-360): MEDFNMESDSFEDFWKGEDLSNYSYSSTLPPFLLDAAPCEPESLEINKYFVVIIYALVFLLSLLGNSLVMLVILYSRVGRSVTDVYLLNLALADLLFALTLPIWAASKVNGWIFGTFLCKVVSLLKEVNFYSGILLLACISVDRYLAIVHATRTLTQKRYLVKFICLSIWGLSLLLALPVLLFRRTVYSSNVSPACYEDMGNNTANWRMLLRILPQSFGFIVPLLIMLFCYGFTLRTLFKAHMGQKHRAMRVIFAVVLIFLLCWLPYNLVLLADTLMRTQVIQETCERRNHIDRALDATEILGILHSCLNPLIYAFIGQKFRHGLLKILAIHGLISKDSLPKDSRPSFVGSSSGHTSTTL
Test: Ligand binding assay, [125I]IL-8 displacement from membranes of HEK 293 cells expressing hrCXCR2
Settings: [125I]IL-8 (~50 pM), HEK 293 hrCXCR2 membranes, 1.5 hours at room temperature
From the text: [^125I]IL-8 (human, recombinant) was purchased from Amersham, U.K. with a specific activity of 2,000 Ci/mmol. All other chemicals were of analytical grade. High levels of hrCXCR2 were expressed in HEK 293 cells (human embryo kidney 293 cells ECACC No. 85120602) (Lee et al. (1992) J. Biol. Chem. 267 pp16283-16291). hrCXCR2 cDNA was amplified and cloned from human neutrophil mRNA. The DNA was cloned into PCRScript (Stratagene) and clones were identified using DNA. The coding sequence was sub-cloned into the eukauyotic expression vector RcCMV (Invitrogen). Plasmid DNA was prepared using Quiagen Megaprep 2500 and transfected into HEK 293 cells using Lipofectamine reagent (Gibco BRL). Cells of the highest expressing clone were harvested in phosphate-buffered saline containing 0.2% (w/v) ethylenediaminetetraacetic acid (EDTA) and centrifuged (200 g, 5 min.). The cell pellet was resuspended in ice cold homogenisation buffer [10 mM HEPES (pH 7.4), 1 mM dithiothreitol, 1 mM EDTA and a panel of protease inhibitors (1 mM phenyl methyl sulphonyl fluoride, 2 μg/ml soybean trypsin inhibitor, 3 mM benzamidine, 0.5 μg/ml leupeptin and 100 μg/ml bacitracin)] and the cells left to swell for 10 minutes. The cell preparation was disrupted using a hand held glass mortar/PTFE pestle homogeniser and cell membranes harvested by centrifugation (45 minutes, 100,000 g, 4° C.). The membrane preparation was stored at −70° C. in homogenisation buffer supplemented with Tyrode's salt solution (137 mM NaCl, 2.7 mM KCl, 0.4 mM NaH2PO4), 0.1% (w/v) gelatin and 10% (v/v) glycerol.
All assays were performed in a 96-well MultiScreen 0.45 μm filtration plates (Millipore, U.K.). Each assay contained ˜50 pM [^125I]IL-8 and membranes (equivalent to ˜200,000 cells) in assay buffer [Tyrode's salt solution supplemented with 10 mM HEPES (pH 7.4), 1.8 mM CaCl2, 1 mM MgCl2, 0.125 mg/ml bacitracin and 0.1% (w/v) gelatin]. […] The backing plate was removed from the MultiScreen plate assembly, the filters dried at room temperature, punched out and then counted on a Cobra γ-counter.

Row | IC50 [nM] | SMILES
1 | 794 | C[C@H](CO)Nc1cc(O)nc(SCc2cccc(Cl)c2)n1 [Example 3, 2-[(3-Chlorobenzyl)thio]-6-{[(1R)-2-hydroxy-1-methylethyl]amino}-4-pyrimidinol]
2 | 100 | C[C@H](CO)Nc1nc(SCc2cccc(F)c2F)nc(O)c1SCc1ncon1 [Example 26, 2-[[(2,3-Difluorophenyl)methyl]thio]-6-[[(1R)-2-hydroxy-1-methylethyl]amino]-5-[(1,2,4-oxadiazol-3-ylmethyl)thio]-4-pyrimidinol]
3 | 31.6 | C[C@H](CO)Nc1nc(SCc2cccc(F)c2)nc(O)c1F [Example 33, 2-[(3-fluorobenzyl)thio]-5-fluoro-6-{[(1R)-2-hydroxy-1-methylethyl]amino}pyrimidin-4-ol]
